Measurements as given in patent publication US20050165015A1, “Vanilloid receptor ligands and their use in treatments” (priority 2004, published 2005).

Row | Compound | melting point [°C]
1 | O=C(Nc1ccc(C(F)(F)F)cc1)c1ccc(-c2ncccc2Cl)cc1 | 208.6
2 | O=C(Nc1ccc(C(F)(F)F)cc1)c1ccc(-c2ncccc2C(F)(F)F)cc1 [Example 1, N-(4-Trifluoromethyl-phenyl)-4-(3-trifluoromethyl-pyridin-2-yl)-benzamide] | 197.8 to 197.9
